Here are results for twelve molecules from patent US8053477B2, “Inhibitors of the S100-p53 protein-protein interaction and method of inhibiting cancer employing the same” (University of Maryland, Baltimore, priority 2002, dated 2011).

In one test the test system is C8146A melanoma cells. Put plainly: siRNA transfection of C8146A melanoma cells, Western blots of S100B, p53, p21. It counts as cell-based, human. Particulars: siRNA 2.0, 20 nM; harvested 24 hrs after transfection. The protocol: The small interfering RNA (siRNA) used consisted of […] (nt) double-stranded RNA, which was synthesized by Xeragon Inc. (Huntsville, Ala.). The sequence of the siRNA, i.e., 5′-ACUACUGCCUGCCACGAGUUC-3 (SEQ ID NO:6), corresponds to the S100β C-terminal end (nt 244-265) plus two dT 3′ overhang.
Different concentrations of siRNA (2.0, 20 nM) were added to the cells along with 2.0 μg of pCMV.3 empty vector (Stratagene, La Jolla, Calif.). The siRNA was transfected in C8146A melanoma cells using FuGENE reagent (Roche Molecular Biochemicals, Indianapolis, Ind.) according to the manufacturer's recommendation. The cells were harvested 24 hrs later and analyzed by Western blots as described above.
(A western blot detects proteins with antibodies after separation by electrophoresis.)

Test [1] has as its target T1, S100B (UniProt P04631).
T1 sequence (P04631 1-92): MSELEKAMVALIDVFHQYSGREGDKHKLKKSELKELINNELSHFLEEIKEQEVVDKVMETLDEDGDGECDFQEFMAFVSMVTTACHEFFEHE
The test is described as follows: Fluorescence binding / competition titrations of small molecules to S100B. The protocol:
(§1) Inhibition of binding of S100 proteins to p53 can be assayed by fluorescence binding/competition assays. For example, binding to S100B is monitored using fluorescent peptides such as the F43W p53 peptide ([…] (SEQ ID NO:1)) or the TRTK-12 peptide ([…] (SEQ ID NO:2)) that both contain fluorescent tryptophan residues (see Example 7). In such an assay, the binding of the peptide is monitored by changes in its fluorescence intensity at 350-370 nm in the presence of 10-20 mM calcium chloride (pH 7.4). Displacement of the peptide by the test compound is then monitored by a corresponding decrease in fluorescence intensity and the dissociation constant of the test compound from S100B is calculated using a standard competition equation (KD=Kapp/(1+[floursecent peptide]/KD peptide). The amino acid residues on S100B to which the test compound binds can then monitored by chemical shift perturbations using NMR spectroscopy.
The binding of the small molecules to S100B identified in the CADD search were measured using fluorescence spectroscopy. The compounds identified are as follows:
Compounds that fluorescent (i.e., for Compounds 9, 31 and 33) were measured by a direct binding assay to S100B via fluorescence intensity changes. […] First, changes in tyrosine fluorescence (for Tyr-17 of S100B) were sufficient in some cases to evaluate binding (Rustandi et al (1998), supra; and Szabo et al, FEBS Lett., 94:249-252 (1978)). However, to circumvent problems associated with the low quantum yield of the tyrosine residue, the F43W mutant of S100B was used (FIG. 12A), and then competition studies were done with wild-type S100B (FIG. 12B). In this S100B construct (in F43W S100B), the tryptophan residue is located in the target protein binding site, so the emission of the tryptophan mutant was measured in a straightforward manner at 338 nm as a function of adding compound. This F43W mutant has similar structure, Ca^2+-binding and target binding properties of wild-type S100B. Another approach was to bind a fluorescent probe to wild-type S100B and do competition binding assays with the compound. […] Steady state experiments to determine binding constants were performed on Aminco Bowman Series 2 Luminescence Spectrophotofluorometer with the temperature of the cell (quartz cuvettes) maintained at 25° C. Two internal controls were performed in all titrations. EGTA was added to S100B to chelate the calcium and determine whether the interaction with the drug requires the Ca^2+-dependent conformational change observed for a number of protein targets (Weber et al, supra). In addition, the titrations were performed in the absence of calcium as a control. All compounds with fluorescence emission spectra were also routinely evaluated for photobleaching before proceeding. Buffers were also checked routinely for any contaminants that may fluoresce.

Test [2] deals with primary malignant melanoma cells (C8146A and HTB 64). Put plainly: Growth of primary malignant melanoma cells (cell counting after 13 days). Type of test: cell-based. Particulars: Homo sapiens. Here is the method:
(§2) The effect that compounds have on the growth of primary malignant melanoma cells (cell lines: C8146A and HTB 64) and normal melanocytes (Cell Applications Inc. 104-05 from neonatal foreskin) were measured. […] The growth inhibition constants (IC50 values) results from other compounds are listed above. In these studies, typically ˜10,000 cells were distributed evenly across T25 vials. One day later, new media with or without the small molecule (2.5 μM or 25 μM) was added, and the cells were allowed to grow for an additional 13 days. Because some molecules were delivered in DMSO, the effect of DMSO (0.1-0.2% (v/v)) on cell growth was also checked and found to have no effect at these levels (FIG. 13). At this point, the cells were washed in phosphate buffer saline (PBS), harvested by treatment with trypsin, and placed in F10 media with 5.0% (v/v) fetal bovine serum (FBS), 5.0% (v/v) newborn calf serum (NCS), and 2.0% (w/v) penicillin/streptomycin. The cells were counted with a hemocytometer in quadruplicate trials.

A further test concerns the target T2, holo-S100B (Homo sapiens, UniProt P04271).
T2 construct: made in house
T2 sequence (P04271 1-92): T1 sequence (P04631 1-92) with E63N, S79A
Put plainly: NMR mapping of binding interface (HSQC chemical shift perturbation, STD). Particulars: 37° C. The protocol: NMR spectroscopy experiments were carried out to determine what amino acid residues of S100B and the small molecule are interacting (FIG. 14). Resonances of S100B that interact with the small molecules were identified by titrating compounds into holo-S100B and monitoring perturbations in chemical shifts of backbone amide-proton correlations in a ^15N-edited HSQC spectrum (Mori et al, J. Magnetic Resonance, B108:94-98 (1995)). […] An example of mapping the Compound-S100B interface is provided in FIGS. 14A-14C for the interaction between holo-S100B and Compound 4. […] These residues are highlighted red in FIG. 14C for titrations with Compound 4. Resonance assignments of S100B bound to the small molecules were confirmed using a 3D NOESY-HSQC experiment, and the backbone and sidechain chemical shifts of Ca^+2-loaded S100B and S100B bound to p53 peptide as described by Drohat et al (1998), supra; Rustadni et al (2000), supra; and Rustadni et al (1998), supra, were also helpful in the assignment procedure. Regions of the inhibitors that interact with S100B were identified using epitope mapping via saturation transfer difference experiments (STDs) as described by Mayer et al, J. Am. Chem. Soc., 123:6108-6117 (2001). In FIG. 14A, protons of the compound that are proximal to S100B are indicated by arrows. […]

Test [3] relates to normal melanocytes (neonatal foreskin). The test is described as follows: Growth of normal melanocytes (cell counting). It counts as cell-based. Particulars: compared with melanoma cells. Here is the method: as §2
Test [4] has as its target T1, S100B. The test is described as follows: Fluorescence binding / competition titrations of small molecules to S100B. Also noted: rows headed: KD of fluorescent probe peptide for S100B. Particulars: read-out: KD of fluorescent probe peptide for S100B; probes used in competition studies with wild-type S100B. The protocol:
as §1
The binding of the small molecules to S100B identified in the CADD search were measured using fluorescence spectroscopy. […]
Compounds that fluorescent (i.e., for Compounds 9, 31 and 33) were measured by a direct binding assay to S100B via fluorescence intensity changes. […] First, changes in tyrosine fluorescence (for Tyr-17 of S100B) were sufficient in some cases to evaluate binding (Rustandi et al (1998), supra; and Szabo et al, FEBS Lett., 94:249-252 (1978)). […]

The subject of a further test is MCF-7. Put plainly: Bleomycin treatment of MCF-7 cells, Western blots of p53, mdm2, p21. It counts as cell-based, human. Particulars: MCF-7, wild type p53; FIG. 6B lane 2. An excerpt: Next, it was explored whether S100B could interact with endogenous p53 and affect the expression of mdm2 and p21. The human breast cancer cell line MCF-7, which has a wild type p53 genotype (Kastan et al, Cell, 71:587-597 (1992)), was transiently transfected with S100B. After S100B transfection, the cells were either treated (or not) with the x-ray mimic agent bleomycin to induce endogenous p53 production.

Where [5] appears, read: direct fluorescence, F43W S100B or peptide-probe competition, 25° C., calcium present, read-out: Kd (binding to S100B, fluorescence spectroscopy).
The mark [6] stands for this setting: 312 h, primary malignant melanoma cells, screened at 2.5 μM or 25 μM, 13 days, read-out: IC50 (growth inhibition constant).

Numbering of substitutions follows the chain as printed. Read-outs that look alike come from different tables or passages of the source. Where no end group is shown, it is not given here.

As for “5′-ACUACUGCCUGCCACGAGUUC-3 [siS100B]”, in the test on C8146A melanoma cells, the “increase in p53 levels” value is on record as 2.3 fold, the “lowering of S100B levels” value was 3 fold and the “up-regulation of p21 protein levels” value is on record as 2.6 fold. Consider `O=C(COc1ccc(C(F)(F)F)c[n+]1[O-])c1cccc([N+](=O)[O-])c1` [Compound 1, 2-[2-(3-nitrophenyl)-2-oxoethoxy]-5-(tri-fluoromethyl)pyridinium-1-olate], for which the Kd on S100B [1] (setting [5]) came out at 2.7 µM. Moreover, in test [2] (setting [6]), the IC50 is 2.5 µM. `N=C(N)NC(=N)Nc1cccc(Cl)c1Cl` [Compound 3, {[(2,3,dichloroanilino)(imino)methyl]amino}methanimidamide]: the IC50 in test [2] (primary malignant melanoma cells, read-out: IC50 (growth inhibition constant), unit inferred) was under 2.5 µM.

On to `Cc1c(NS(=O)(=O)c2ccc(NC(=O)CCC(=O)O)cc2)c(=O)n(-c2ccccc2)n1C` [Compound 4, 4-(4-{[(1,5-dimethyl-3-oxo-2-phenyl-2,3,dihydro-1H-pyrazol-4-yl)amino]sulfonyl}anilino)-4-oxo butanoic acid], for which, at S100B [1] (setting [5]), the Kd came to 2 µM. For the same molecule, the “binding site on S100B by NMR” value at holo-S100B is “interacts with the C-terminus of S100B (loop 4) and another region of S100B (loop 2)”. For `N=C(N)NC(=N)Nc1ccc(Cl)cc1C(=O)c1ccccc1` [Compound 9, {[(2-benzoyl-4-chloroanilino)(imino)methyl]amino}methanimidamide], at S100B [1] (setting [5]), the Kd was determined as 4 µM. On to `O=C(O)c1cc(N/N=C/c2ccc(-c3ccc(Cl)c(C(=O)O)c3)o2)ccc1Cl` [Compound 31], for which, at S100B [1] (setting [5]), the Kd was about 6 µM. Besides, in test [2] (setting [6]), the IC50 is about 25 µM.

For `COc1cc(C2Nc3ccccc3-c3nc(SC)nnc3O2)ccc1OCC(=O)O` (stereo not drawn) [Compound 33, 1,2-(3-methylthiotraizine),3,4-phenyl,6-[(2-methoxyphenoxy)Acetic Acid]morpholine], the IC50 in test [2] (setting [6]) is about 25 µM. As for `CC(C)(C)NC(=O)c1cccc(N2C(=O)c3ccc(C(=O)O)cc3C2=O)c1` [Compound 44, 2-(3-tert-Butylcarbamoyl-phenyl)-1,3-dioxo-2,3-dihydro-1H-isoindole-5-carboxylic acid], at S100B [1] (setting [5]), the Kd was about 24 µM. As to `COc1cccc(N2C(=O)c3ccc(C(=O)Nc4cc(C(=O)O)cc(C(=O)O)c4)cc3C2=O)c1` [Compound 45, 5-{[2-(3-Methoxy-phenyl)-1,3-dioxo-2,3-dihydro-1H-isoindole-5-carbonyl]-amino}-isophthalic acid], the Kd at S100B [1] (setting [5]) was about 12 µM. On to `N=C(N)c1ccc(OCCCCCOc2ccc(C(=N)N)cc2)cc1` [pentamidine, reference compound], for which the Kd on S100B [1] (setting [5]) was 1.4 µM; at S100B [1] (read-out: binding constant (KD) between wild-type holo-S100B and pentamidine, competition of pentamidine bound to F43W S100B with wild-type S100B), 0.7 µM. For the same molecule, at holo-S100B, the “binding site on S100B by NMR” value was “in the p53 binding site”. The IC50 in test [2] (primary malignant melanoma cells (C8146A), read-out: IC50 for inhibition of cell growth) is about 0.5 µM. The “effect on normal melanocytes, in words” value in test [3] is “lesser effects on normal melanocytes”. For the molecule “SHLKSKKGQSTSRHKKLMWKTE [p53 (F385W), reference compound]”, the Kd at S100B [4] is 3 µM. For the molecule bleomycin, the “basal levels of p53, mdm2 and p21, in words” value in the test on MCF-7 is “induced”.

As usually defined, the Kd is the free concentration of one partner at which half of the binding sites on the other are occupied at equilibrium, for simple one-to-one binding. Broadly, the IC50 is the midpoint of a concentration-inhibition curve.
